{"source": "patent US7977082B2", "about": "“Isomaltulose synthases, polynucleotides encoding them and uses therefor” (The University of Queensland of St. Lucia, priority 2001, dated 2011)", "molecules": {"B1": {"name": "Klebsiella sp. 14S sucrose isomerase (SI), carboxy-terminal 6×His tag (SEQ ID NO: 52) (Klebsiella planticola) (protein)", "chain": "APSVNQNIHVHKESEYPAWWKEAVFYQIYPRSFKDTNDDGIGDIRGIIEKLDYLKSLGIDAIWINPHYDSPNTDNGYDISNYRQIMKEYGTMEDFDNLVAEMKKRNMRLMIDVVINHTSDQHPWFIQSKSDKNNPYRDYYFWRDGKDNQPPNNYPSFFGGSAWQKDAKSGQYYLHYFARQQPDLNWDNPKVREDLYAMLRFWLDKGVSSMRFDTVATYSKIPGFPNLTPEQQKNFAEQYTMGPNIHRYIQEMNRKVLSRYDVATAGEIFGVPLDRSSQFFDPRRHELNMAFMFDLIRLDRDSNERWRHKSWSLSQFRQIISKMDVTVGKYGWNTFFLDNHDNPRAVSHFGDDRPQWREASAKALATITLTQRATPFIYQGSELGMTNYPFRQLNEFDDIEVKGFWQDYVQSGKVTATEFLDNVRLTSRDNSRTPFQWNDTLNAGFTRGKPWFHINPNYVEINAEREETREDSVLNYYKKMIQLRHHIPALVYGAYQDLNPQDNTVYAYTRTLGNERYLVVVNFKEYPVRYTLPANDAIEEVVIDTQQQATAPHSTSLSLSPWQAGVYKLR"}, "B2": {"name": "Pantoea dispersa 68J sucrose isomerase (SI), mature, SEQ ID NO: 10, carboxy-terminal 6×His tag (SEQ ID NO: 52) (Pantoea dispersa) (protein)", "chain": "ATNIQKSADFPIWWKQAVFYQIYPRSFKDSNGDGIGDIPGIIEKLDYLKMLGVDAIWINPHYESPNTDNGYDISDYRKIMKEYGSMADFDRLVAEMNKRGMRLMIDIVINHTSDRHRWFVQSRSGKDNPYRDYYFWRDGKQGQAPNNYPSFFGGSAWQLDKQTDQYYLHYFAPQQPDLNWDNPKVRAELYDILRFWLDKGVSGLRFDTVATFSKIPGFPDLSKAQLKNFAEAYTEGPNIHKYIHEMNRQVLSKYNVATAGEIFGVPVSAMPDYFDRRREELNIAFTFDLIRLDRYPDQRWRRKPWTLSQFRQVISQTDRAAGEFGWNAFFLDNHDNPRQVSHFGDDSPQWRERSAKALATLLLTQRATPFIFQGAELGMTNYPFKNIEEFDDIEVKGFWNDYVASGKVNAAEFLQEVRMTSRDNSRTPMQWNDSVNAGFTQGKPWFHLNPNYKQINAAREVNKPDSVFSYYRQLINLRHQIPALTSGEYRDLDPQNNQVYAYTRILDNEKYLVVVNFKPEQLHYALPDNLTIASSLLENVHQPSLQENASTLTLAPWQAGIYKLN"}}, "note": "Several values for one entry are separate records, joined by “and”; a condition that tells them apart may be missing. Equal values may be shown once. Residues, ends and D or L forms follow the SMILES beside them.", "data": [{"substrate": "OC[C@H]1O[C@@](CO)(O[C@H]2O[C@H](CO)[C@@H](O)[C@H](O)[C@H]2O)[C@@H](O)[C@@H]1O", "test": "Sucrose isomerase kinetics, purified SI from Klebsiella sp. 14S (isomaltulose production), with or without glucose/fructose", "type": "biochemical", "conditions": "other: sucrose, pH 6.0, 30° C., Lineweaver and Burk", "procedure": "(§1) The pET24b vector introduces a carboxy-terminal 6×His tag (SEQ ID NO: 52) on expressed proteins, which were purified by adsorption to Ni-NTA agarose (Qiagen) and elution with 25 mM NaH2PO4, 150 mM NaCl, 125 mM imidazole buffer (pH8.0) following the manufacturer's instructions. For storage, the eluted solution was diluted with 50% glycerol. The purity of SI proteins was tested by SDS-PAGE as described below. A batch procedure using Ni-NTA agarose in suspension yielded predominantly (80-95%) SI with a background of several other protein bands. A procedure using Ni-NTA agarose in adsorption columns yielded preparations containing a single protein band. […]\n(§2) Enzyme activities were measured by incubating 5 μl of purified enzyme with 95 μL of sucrose solution at a final concentration of 584 mM in 0.1 M citrate/phosphate buffer (pH 6.0) at 30° C. Sugar profiles in the reaction mix were analysed at intervals by CE as described previously. […]\n(§3) SI activity was measured by incubating the purified enzyme with different sucrose concentrations (3, 6, 15, 58, 146, 292, 584, 877, 1169 and 1461 mM) under standard assay conditions, and also with addition of glucose, fructose or both to a final concentration of 277 mM. Data were analyzed according to the method of Lineweaver and Burk (Voet and Voet, 1995) to calculate Km and Vmax values.", "units": {"Km": "mM", "Vmax": "U mg^−1"}, "values": [{"molecule": "B1", "Km": 81.6, "Vmax": 99.8}]}, {"system": "P. mesoacidophila sucrose isomerase (SI)", "test": "not given", "conditions": "Nagai et al., 1994; Véronèse and Perlot, 1998; cited from earlier work", "values": [{"molecule": "OC[C@H]1OC(O)(CO)[C@@H](O)[C@@H]1O", "note": "(stereo partly drawn) [fructose]", "Inhibition of activity": "not"}]}, {"system": "K. plymuthica sucrose isomerase (SI)", "test": "not given", "conditions": "Nagai et al., 1994; Véronèse and Perlot, 1998; cited from earlier work", "values": [{"molecule": "OC[C@H]1OC(O)(CO)[C@@H](O)[C@@H]1O", "note": "(stereo partly drawn) [fructose]", "Inhibition of activity": "not"}]}, {"system": "P. rubrum sucrose isomerase (SI)", "test": "not given", "conditions": "Nagai et al., 1994; Véronèse and Perlot, 1998; cited from earlier work", "values": [{"molecule": "OC[C@H]1OC(O)(CO)[C@@H](O)[C@@H]1O", "note": "(stereo partly drawn) [fructose]", "Inhibition of activity": "not"}]}, {"system": "P. dispersa 68J", "test": "Growth in BP medium with different sugars", "type": "cell-based", "conditions": "2% sugar added to BP medium, 18 h incubation at 30°C", "procedure": "Isomaltulose production was tested using cells grown in LB and in a basal peptone medium (BP, comprising 1% BBL gelysate peptone and 0.5% NaCl, adjusted to pH 7.0 prior to autoclaving). Glucose, fructose, sucrose, lactose, maltose or isomaltulose was added to the cooled media, from a filter-sterilised stock. The media containing 4% (w/v) sucrose are referred to as SLB and SBP respectively.\nInoculum of 100 μL from a culture grown for 12 h in LB medium was added to 25 mL growth medium in a 250 mL flask. After 18 h at 30° C. on a shaker at 225 rpm, OD600 was used to measure growth. Cultures were diluted with growth medium to OD600=1.50 (approximately half the cell density of a saturated culture in SLB). Aliquots of 1 mL were harvested by centrifugation at 5000×g for 10 min and washed three times with 0.1 M citrate/phosphate buffer (pH 6.0). The cell pellets were resuspended in 0.4 mL of 0.1 M citrate/phosphate buffer (pH 6.0) containing 50% sucrose (w/v). Culture supernatant was filtered through a 0.2 μm filter (Pall Acrodisc), and 0.1 mL was mixed with 0.4 mL of 0.1 M citrate/phosphate buffer (pH 6.0) containing 50% sucrose (w/v), for parallel testing of culture filtrate and harvested cells in the SI assay.", "values": [{"molecule": "OC[C@H]1O[C@@](CO)(O[C@H]2O[C@H](CO)[C@@H](O)[C@H](O)[C@H]2O)[C@@H](O)[C@@H]1O", "note": "[Sucrose]", "effect on growth of P. dispersa 68J": "supported faster growth"}, {"molecule": "OC[C@H]1O[C@H](O[C@H]2[C@H](O)[C@@H](O)[C@H](O)O[C@@H]2CO)[C@H](O)[C@@H](O)[C@@H]1O", "note": "[Maltose]", "effect on growth of P. dispersa 68J": "little effect"}, {"molecule": "OC[C@H]1O[C@@H](O[C@H]2[C@H](O)[C@@H](O)C(O)O[C@@H]2CO)[C@H](O)[C@@H](O)[C@H]1O", "note": "(stereo partly drawn) [lactose]", "effect on growth of P. dispersa 68J": "little effect"}]}, {"system": "strain 68J", "test": "Growth of strain 68J with different carbon sources (BIOLOG GN)", "type": "cell-based, Pantoea dispersa", "design": "scale not given here", "conditions": "relative values; 96-well plates (BIOLOG GN)", "procedure": "The morphological, cultural and biochemical features of strain 68J were determined in tests using E. coli (Top 10), K. oxytoca (JMP4505), E. rhapontici (WAC2928) as positive/negative controls. Gram stain, fermentation, catalase activity, pigment observation, and Simon's citrate tests were conducted according to Singleton (1999, Bacteria in Biology, Biotechnology and Medicine (5th edition). Wiley, New York). Oxidase activity by Kovac's reagent, indole production by Ehrlich's indole test, methyl red response, Voges-Proskauer reaction in Clark and Lub's medium, urea hydrolysis in Christensen's urea, lysine decarboxylase, ornithine decarboxylase and gelatin liquefaction were tested as described by MacFaddin (1979, Biochemical Tests for Identification of Medical Bacteria. Williams & Wilkins, Baltimore). Morphology, capsules and motility were observed microscopically. Carbon source utilization was tested in 96-well plates (BIOLOG GN).", "values": [{"molecule": "N[C@@H](C(=O)O)[C@@H](O)[C@H](O)[C@H](O)CO", "note": "[D-glucosaminic acid]", "Growth": 1}, {"molecule": "OC[C@@H](O)[C@@H](O)CO", "note": "[i-erythritol]", "Growth": 0}, {"molecule": "NCCO", "note": "[2-amino ethanol]", "Growth": "−4"}, {"molecule": "OC[C@H]1O[C@@H]2O[C@H]3[C@H](O)[C@@H](O)[C@@H](O[C@H]4[C@H](O)[C@@H](O)[C@@H](O[C@H]5[C@H](O)[C@@H](O)[C@@H](O[C@H]6[C@H](O)[C@@H](O)[C@@H](O[C@H]7[C@H](O)[C@@H](O)[C@@H](O[C@H]1[C@H](O)[C@H]2O)O[C@@H]7CO)O[C@@H]6CO)O[C@@H]5CO)O[C@@H]4CO)O[C@@H]3CO", "note": "[a-cyclodextrin]", "Growth": 9}, {"molecule": "Tween40", "Growth": 25}, {"molecule": "2,3-butynediol", "Growth": 1}, {"molecule": "OC[C@H]1O[C@H](OCC2O[C@@H](O)[C@H](O)[C@@H](O)[C@@H]2O)[C@H](O)[C@@H](O)[C@H]1O", "note": "(stereo partly drawn) [D-melibiose]", "Growth": 6}, {"molecule": "NCC(=O)N[C@@H](CC(=O)O)C(=O)O", "note": "[Glycyl-L-aspatic acid] (H-Gly-Asp-OH)", "Growth": "−8"}, {"molecule": "α-D-lactose lactulose", "Growth": 12}, {"molecule": "C[N+](C)(C)CC(O)CC(=O)[O-]", "note": "(racemic) [D,L-carnitine]", "Growth": "−10"}, {"molecule": "CC(O)C(=O)O", "note": "(racemic) [D,L-lactic acid]", "Growth": 365}, {"molecule": "OC[C@H]1O[C@H](OC[C@H]2O[C@H](O[C@]3(CO)O[C@H](CO)[C@@H](O)[C@@H]3O)[C@H](O)[C@@H](O)[C@@H]2O)[C@H](O)[C@@H](O)[C@H]1O", "note": "[D-raffinose]", "Growth": 330}, {"molecule": "O[C@H]1[C@H](O)[C@@H](O)[C@H](O)[C@@H](O)[C@H]1O", "note": "[m-inositol]", "Growth": 611}, {"molecule": "O=C(O)CCC(=O)C(=O)O", "note": "[α-keto glutanic acid]", "Growth": 91}, {"molecule": "O=C(O)[C@H]1OC(O)[C@H](O)[C@@H](O)[C@@H]1O", "note": "(stereo partly drawn) [D-glucoronic acid]", "Growth": 6}, {"molecule": "O=P(O)(O)OCC(O)CO", "note": "(racemic) [D,L-α-glycerol phosphate]", "Growth": "−8"}, {"molecule": "OC[C@H]1O[C@H](O[C@H]2O[C@H](CO)[C@@H](O)[C@H](O)[C@H]2O)[C@H](O)[C@@H](O)[C@@H]1O", "note": "[D-trehalose]", "Growth": 619}, {"molecule": "O=C1O[C@@H]([C@H](O)CO)[C@H](O)[C@H]1O", "note": "[D-galactonic acid lactone]", "Growth": "−7"}, {"molecule": "O=C(O)/C=C(/CC(=O)O)C(=O)O", "note": "[cis-aconitic acid]", "Growth": 122}, {"molecule": "O=C(O)Cc1ccc(O)cc1", "note": "[ρ-hydroxy phenylacetic acid]", "Growth": 5}, {"molecule": "C[C@@H](O)[C@H](N)C(=O)O", "note": "[L-theronine]", "Growth": "−12"}, {"molecule": "CO[C@@H]1O[C@H](CO)[C@@H](O)[C@H](O)[C@H]1O", "note": "[β-methyl D-glucosidase]", "Growth": 684}, {"molecule": "OC[C@@H](O)C(O)[C@H](O)CO", "note": "[D-arabitol]", "Growth": "−11"}, {"molecule": "O=P(O)(O)O[C@H]1O[C@H](CO)[C@@H](O)[C@H](O)[C@H]1O", "note": "[Glucose-1-phosphate]", "Growth": 356}, {"molecule": "O=C(CO)[C@@H](O[C@H]1O[C@H](CO)[C@@H](O)[C@H](O)[C@H]1O)[C@H](O)[C@H](O)CO", "note": "[Turanose]", "Growth": 23}]}, {"substrate": "OC[C@H]1O[C@@](CO)(O[C@H]2O[C@H](CO)[C@@H](O)[C@H](O)[C@H]2O)[C@@H](O)[C@@H]1O", "test": "Sucrose isomerase kinetics, purified SI from P. dispersa 68J (isomaltulose production), with or without glucose/fructose", "type": "biochemical, Pantoea dispersa 68J", "conditions": "other: sucrose, pH 6.0, 30° C., Lineweaver and Burk", "procedure": "as §1, §2, §3", "units": {"Vmax": "U mg^−1"}, "values": [{"molecule": "B2", "Km": "46.6 mM and 47 mM", "Vmax": 636.9}]}, {"system": "E. rhapontici sucrose isomerase (SI)", "test": "not given", "conditions": "Nagai et al., 1994; Véronèse and Perlot, 1998; cited from earlier work", "values": [{"molecule": "OC[C@H]1OC(O)(CO)[C@@H](O)[C@@H]1O", "note": "(stereo partly drawn) [fructose]", "Inhibition of activity": "not"}]}]}
